The results in this text go back to patent US7884127B2, “Inhibitors of cyclin dependent kinases and their use” (Pirimal Life Sciences Ltd., priority 2002, dated 2011).

Structures can show the parent of a compound that is named as a salt.

Data set [1] has as its system MCF-7 Breast. As to the kind of experiment: In vitro cell proliferation assay (3H-Thymidine uptake), MCF-7. The format is cell-based. The following applies: Homo sapiens, MCF7, 72 hours. The method, then: (§1) In Vitro Cell Proliferation and Cytotoxicity Assays:
(§2) Exponentially growing cultures of ten human cancerous cell lines (HL-60 Promyelocytic Leukemia, PC-3 Prostate, H-460 Lung, MDA-MB-231 Breast, MCF-7 Breast, HeLa Cervix, Colo-205 Colon, H9 Lymphoma (T Cells), U-937 Histiocytic Lymphoma (monocytes) and CaCO-2 Colon) obtained from NCCS, Pune, India were used. The in vitro cell proliferation (NCI, USA protocol) and cytotoxicity assays were carried out using standard procedures viz. ^3H-Thymidine uptake and MTS assay, respectively (For ^3H-Thymidine uptake: Cell Biology, A Laboratory Handbook, 1998, Vol 1 Ed Julio E. Celis, and For MTS assay: Promega Protocol, USA, 2000). In the ^3H-Thymidine uptake assay, cells were harvested after 72 hours onto GF/B unifilter plates (Packard, USA) using a Packard Filtermate Universal harvester and the plates were counted on a Packard TopCount 96-well liquid scintillation counter. The concentration of compound at which 50% of proliferative activity was inhibited (IC50) and the degree of toxicity of compound were calculated for representative compounds and their pharmaceutically acceptable salts described in the Examples.

The subject of data set [2] is H460 Lung. The data set can be described thus: Cytotoxicity assay (MTS), H460. The format is cell-based, human. The method, then: as §1, §2
In data set [3] the test system is PC-3 Prostate. The data set can be described thus: Cytotoxicity assay (MTS), PC-3. In kind it is cell-based, human. The method, then:
as §1, §2

The subject of data set [4] is HeLa Cervix. The data set can be described thus: Cytotoxicity assay (MTS), HeLa. The format is cell-based, human. The method, then:
as §1, §2

For data set [5], the system named is HeLa Cervix. As to the kind of experiment: In vitro cell proliferation assay (3H-Thymidine uptake), HeLa. The format is cell-based. The following applies: Homo sapiens, 72 hours. The method, then: as §1, §2
For data set [6], the system named is PC-3 Prostate. As to the kind of experiment: In vitro cell proliferation assay (3H-Thymidine uptake), PC-3. In kind it is cell-based. As to conditions: Homo sapiens, 72 hours. The method, then:
as §1, §2

The subject of data set [7] is U-937 Histiocytic lymphoma (monocytes). As to the kind of experiment: In vitro cell proliferation assay (3H-Thymidine uptake), U-937. The format is cell-based. As to conditions: Homo sapiens, 72 hours. The method, then: as §1, §2
The subject of data set [8] is MDAMB-231 Breast. The data set can be described thus: Cytotoxicity assay (MTS), MDA-MB-231. In kind it is cell-based, human. The method, then: as §1, §2
The test system of data set [9] is MDAMB-231 Breast. As to the kind of experiment: In vitro cell proliferation assay (3H-Thymidine uptake), MDA-MB-231. As to conditions: Homo sapiens, 72 hours. The format is cell-based. The method, then: as §1, §2
Data set [10] relates to MCF-7 Breast. The data set can be described thus: Cytotoxicity assay (MTS), MCF-7. The format is cell-based, human. The method, then: as §1, §2
The subject of data set [11] is H460 Lung. The data set can be described thus: In vitro cell proliferation assay (3H-Thymidine uptake), H460. The format is cell-based. As to conditions: Homo sapiens, NCI-H460, 72 hours. The method, then:
as §1, §2

Data set [12] deals with U-937 Histiocytic lymphoma (monocytes). As to the kind of experiment: Cytotoxicity assay (MTS), U-937. The format is cell-based, human. The method, then: as §1, §2

The term IC50 denotes the concentration that inhibits the measured activity by half. High values mean a need for much substance, low ones inhibition by little substance. `CN1CC[C@H](c2c(O)cc(O)c3c(=O)cc(-c4ccccc4Cl)oc23)[C@H](O)C1` (relative stereo) [Flavopiridol, cis-{2-(2-Chloro-phenyl)-5,7-dihydroxy-8-(3-hydroxy-1-methyl-piperidin-4-yl)-chromen-4-one hydrochloride}, reference compound]: the IC50 in [1] is 0.5 µM; in data set [5], 0.1 to 0.5 µM; in data set [6] it was 0.05 to 0.1 µM; in [7] it was 0.1 µM; in [9] it was 0.1 µM; in data set [11] it was 0.05 µM. The “degree of toxicity H460 Lung” value in data set [2] is given as “+ (30-50% toxic)”. For the same molecule, in data set [3], the “degree of toxicity PC-3 Prostate” value is on record as “++ (50-70% toxic)”. Also, the “degree of toxicity HeLa Cervix” value in data set [4] is recorded as “+++ (above 70% toxic)”. Further, the “degree of toxicity MDAMB-231 Breast” value in data set [8] is on record as “++ (50-70% toxic)”. Further, the “degree of toxicity MCF-7 Breast” value in data set [10] is on record as “+ (30-50% toxic)”. Besides, the “degree of toxicity U-937 Histiocytic lymphoma (monocytes)” value (shortened to “degree … (monocytes)”) in data set [12] is listed as “++ (50-70% toxic)”.
In the case of `CN1CC[C@@H](c2c(O)cc(O)c3c(=O)cc(-c4ccccc4Cl)oc23)[C@@H]1CO` [Example 14A, (+)-trans-2-(2-Chloro-phenyl)-5,7-dihydroxy-8-(2-hydroxymethyl-1-methyl-pyrrolidin-3-yl)-chromen-4-one], the IC50 was in the range of 0.5 to 1 µM in [1]; 0.1 to 0.5 µM in data set [5]; 0.5 to 1 µM in [6]; 0.1 to 1 µM in data set [7]; 0.5 to 1 µM in data set [9]; 5 to 10 µM in data set [11]. For the same molecule, the “degree of toxicity H460 Lung” value in [2] was “NT (not toxic ≦30%)”. For the same molecule, in [3], the “degree of toxicity PC-3 Prostate” value was “++ (50-70% toxic)”. In data set [4], the “degree of toxicity HeLa Cervix” value was “++ (50-70% toxic)”. Further, the “degree of toxicity MDAMB-231 Breast” value in [8] is reported as “NT (not toxic ≦30%)”. In data set [10], the “degree of toxicity MCF-7 Breast” value was “NT (not toxic ≦30%)”. Moreover, the “degree … (monocytes)” value in data set [12] is “+ (30-50% toxic)”.
In general, melting point refers to the temperature of the solid-liquid transition. `CN1CC[C@@H](c2c(O)cc(O)c3c(=O)cc(-c4ccccc4Br)oc23)[C@@H]1CO` [Example 17, (+)-trans-2-(2-Bromo-phenyl)-5,7-dihydroxy-8-(2-hydroxymethyl-1-methyl-pyrrolidin-3-yl)-chromen-4-one] registered a melting point of 235 to 237 °C. The molecule also had an IC50 in data set [1] of 0.5 to 1 µM. Also, the “degree of toxicity H460 Lung” value in [2] was “NT (not toxic ≦30%)”. In addition, the “degree of toxicity PC-3 Prostate” value in data set [3] is “NT (not toxic ≦30%)”. Further, the “degree of toxicity HeLa Cervix” value in [4] is reported as “+ (30-50% toxic)”. Besides, in [5], the IC50 was 0.1 to 1 µM. The molecule also came in with an IC50 in data set [6] of 1 to 10 µM. This molecule registered an IC50 in data set [7] of 0.1 to 1 µM. Further, the “degree of toxicity MDAMB-231 Breast” value in data set [8] is “NT (not toxic ≦30%)”. In [9], this molecule registered an IC50 of 0.1 µM. Further, the “degree of toxicity MCF-7 Breast” value in [10] was “+ (30-50% toxic)”. The same molecule had an IC50 in [11] of more than 10 µM. Besides, the “degree … (monocytes)” value in [12] is recorded as “+ (30-50% toxic)”.
Take `CN1CC[C@@H](c2c(O)cc(O)c3c(=O)cc(-c4ccc(Br)cc4Cl)oc23)[C@@H]1CO` [Example 100, (+)-trans-2-(4-Bromo-2-chloro-phenyl)-5,7-dihydroxy-8-(2-hydroxymethyl-1-methyl-pyrrolidin-3-yl)-chromen-4-one]: the melting point is 155 to 156 °C.
Same read-out and setting: next, `CN1CC[C@@H](c2c(O)cc(O)c3c(=O)cc(-c4cccc(F)c4Cl)oc23)[C@@H]1CO` [Example 134, (+)-trans-2-(2-Chloro-3-fluoro-phenyl)-5,7-dihydroxy-8-(2-hydroxymethyl-1-methyl-pyrrolidin-3-yl)-chromen-4-one]: 221 to 223 °C; `CN1CC[C@@H](c2c(O)cc(O)c3c(=O)cc(-c4cccc(F)c4Br)oc23)[C@@H]1CO` [Example 136, (+)-trans-2-(2-Bromo-3-fluoro-phenyl)-5,7-dihydroxy-8-(2-hydroxymethyl-1-methyl-pyrrolidin-3-yl)-chromen-4-one]: 237 to 239 °C; `CN1CC[C@@H](c2c(O)cc(O)c3c(=O)cc(-c4cc(Cl)ccc4Br)oc23)[C@@H]1CO` [Example 140, (+)-trans-2-(2-Bromo-5-chloro-phenyl)-5,7-dihydroxy-8-(2-hydroxymethyl-1-methyl-pyrrolidin-3-yl)-chromen-4-one]: 233 to 235 °C.
